The test system of the experiment is endothelium-ablated specimen of rat thoracic aorta. As to the kind of experiment: Effect of inhibiting contraction caused by 30 mM K on endothelium-ablated specimen of rat thoracic aorta. It counts as cell-based. The conditions noted are these: 10 min, cumulative application at intervals of 10 minutes, 37° C., 10^-4 M papaverine = 100% relaxation, read-out: median inhibitory concentration (IC50). As to the method: (Effect of inhibiting contraction caused by 30 mM K on endothelium-ablated specimen of rat thoracic aorta)
A thoracic aorta was enucleated from a rat (weight: 129-492 g) and cut into lengths of 3 mm. Cotton in the form of a paper string was put in a lumen of each of ring specimens, and the inner surface of the ring specimen was rubbed several times with the cotton, thereby ablating an endothelium from the thoracic aorta specimen. This specimen was incubated at 37° C. and suspended in 10 ml of a Krebs-Henseleit solution, into which a mixed gas had been introduced, with a load of 2 g applied thereto. The tension thereof was isometrically recorded in a recorder through an FD transducer and a dynamic strain gage. After at least 60 minutes went on after the suspension, and the sample was stabilized, 10^-7 M noradrenaline was applied several times to the specimen. Under contraction caused by 10^-7 M noradrenaline, 10^-7 M acetylcholine was applied to the specimen. A specimen which manifested no relaxing effect at this time was used in an experiment as an endothelium-ablated specimen. Each of agents (compounds of Compound Numbers shown in Table 20 and Cromakalim) to be tested was cumulatively applied at intervals of 10 minutes from the time 30 mM K^+ had been applied to such a specimen, and the contraction of the specimen had been fixed, thereby calculating a median inhibitory concentration (IC50). Incidentally, 10^-4 M papaverine was applied to confirm 100% relaxing affect. The agents to be tested were dissolved (5×10^-2 M in dimethyl sulfoxide and diluted with purified water before their use.

As for `CC(=O)NN1CC(C)(C)C(=O)c2ccc(C(F)(F)F)cc21` [compound 21], the IC50 came to 100 nM.

`CC1(C)CN(NC(=O)c2cccnc2)c2cc(OC(F)(F)F)ccc2C1=O` [compound 30]: the IC50 came to 49.2 nM.

`CC1(C)CN(NC(=O)c2cccnc2)c2cc(C(F)(F)F)ccc2C1=O` [compound 23]: the IC50 was 66.2 nM.

With `CC1(C)Oc2ccc(C#N)cc2[C@@H](N2CCCC2=O)[C@@H]1O` (racemic) [Cromakalim, (±)-trans-6-cyano-2,2-dimethyl-4-(2-oxopyrrolidin-1-yl)-3,4-dihydro-2H-1-benzopyran-3-ol, reference compound], the IC50 was determined as 130 nM.

For `CC1(C)CN(N2CCCC2=O)c2cc(S(=O)(=O)c3ccccc3)ccc2C1=O` [Compound No. 63, 2,3-Dihydro-3,3-dimethyl-7-phenylsulfonyl-1-(2-oxopyrrolidin-1-yl)-4(1H)-quinolinone], the IC50 worked out at 86.9 nM.

For `CC(=O)NN1CC(C)(C)C(=O)c2ccc(S(=O)(=O)c3ccccc3)cc21` [Compound No. 53, 1-Acetoamino-2,3-dihydro-3,3-dimethyl-7-phenylsulfonyl-4(1H)-quinolinone], the IC50 is 83.2 nM.

Regarding `CC(=O)NN1CC(C)(C)C(=O)c2ccc(OC(F)(F)F)cc21` [compound 28], the IC50 stood at 48.2 nM.

`CC(=O)NN1CC(C)(C)C(=O)c2ccc(S(=O)(=O)C(F)(F)F)cc21` [Compound No. 44, 1-Acetoamino-2,3-dihydro-3,3-dimethyl-7-(trifluoromethyl) sulfonyl-4(1H)-quinolinone]: the IC50 came out at 18.8 nM.

Turning to `CCC(=O)NN1CC(C)(C)C(=O)c2ccc(OC(F)(F)F)cc21` [compound 29], the IC50 stood at 104 nM.
